Test results taken from publication doi:10.1101/2025.05.23.655116v1 (biorxiv, 2025).

Molecular target: T1, FBG domain of Tenascin C (FBG-C, FBG-BAP, hFBG-C) (Homo sapiens, UniProt P24821)
T1 sequence (P24821 1976-2193): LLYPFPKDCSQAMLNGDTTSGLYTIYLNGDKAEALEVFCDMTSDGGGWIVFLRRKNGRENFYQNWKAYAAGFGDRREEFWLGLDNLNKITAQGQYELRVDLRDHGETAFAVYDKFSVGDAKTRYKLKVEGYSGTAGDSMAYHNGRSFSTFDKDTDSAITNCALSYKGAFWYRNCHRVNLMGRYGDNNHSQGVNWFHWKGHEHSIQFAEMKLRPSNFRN
Test: SPR, biotinylated FBG on SA chip
Assay type: binding

SMILES: COc1ccc(CN(C)CCc2cnn(C)c2)cc1OC[C@@H](O)CN1CCCCC1 [compound 830, 73494830]
- Kd: 553 µM
